Measurements taken from US20220401573A1, “COMPOSITION AND METHOD FOR TREATMENT OF MULTIPLE SCLEROSIS” (Wuhan Vast Conduct Science Foundation CO., LTD., priority 2019, published 2022).

Tested on: EAE mice
Assay: Clinical scoring of MOG-induced EAE in mice
Assay type: in vivo, C57BL/6N female mice
Conditions: 10 mg/kg p.o., day 1 to day 28, positive control, FIG. 10
Protocol: C57BL/6N female mice, 7-9 weeks old, were used. Animals were housed and maintained in compliance with the regulations.
On Day 0, mice were grouped randomly by body weight, and then injected subcutaneously with 200 μg of myelin oligodendrocyte glycoprotein (MOG) peptide in complete Freund's adjuvant (CFA) into the right and left flank, 100 μl per site. Pertussis toxin (PTX) injected by i.p at 0 and 48 hours after MOG immunization. Compounds were given from day 1 to day 28 according to Table 2. The animals (n=10) were scored daily for clinical signs of EAE. At the end of the experiments, spinal cords were used for HE staining (n=5), and analysis of TNF-α, IL-17, IFN-γ by Elisa kit.
The animals were scored daily for clinical signs of EAE according to the Clinical scoring rubric for EAE (Table 3).

Structure (SMILES): C[C@]12C=CC(=O)C=C1CC[C@@H]1[C@@H]2C(=O)C[C@@]2(C)[C@H]1CC[C@]2(O)C(=O)CO [prednisone, Prednisone]
- clinical signs of EAE (clinical score): significantly reduced clinical signs of EAE from day 13th
